Reference: patent publication US5925633A, “3-Substituted-4-oxa-1-azabicyclo [3,2,0]heptan-7-one as cysteine protease inhibitors” (Synphar Laboraties, Inc., priority 1996, dated 1999)
Like-named read-outs stand apart in the source and are kept apart here.

Tests used:
[1] = biological target: T1, papain (Carica papaya, UniProt P00784); assay: In vitro assay procedure for papain (inhibition); format: biochemical
T1 sequence (P00784 134-345): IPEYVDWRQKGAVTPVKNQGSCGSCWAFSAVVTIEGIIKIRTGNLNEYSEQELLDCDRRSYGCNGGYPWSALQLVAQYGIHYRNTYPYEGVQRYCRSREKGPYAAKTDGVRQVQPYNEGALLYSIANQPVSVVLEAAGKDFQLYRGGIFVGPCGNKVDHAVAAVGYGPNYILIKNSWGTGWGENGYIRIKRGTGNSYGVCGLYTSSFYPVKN
Experimental: To a 170 μl of enzyme-buffer mixture (enzyme: papain, diluted to give 30 mOD/min, buffer: 0.2 M potassium phosphate, 1.0 mM EDTA, 5 mM L-Cysteine, pH 6.5) a 10 μL of inhibitor (dissolved in DMSO) was added. After 10 min of incubation at room temperature, a 20 μl of 10 mM substrate (N-CBZ-Pro-Phe-Arg-pNA, dissolved in DMSO) was added to initiate reaction. Reading is followed up for 3 min at the Thermomax plate reader (absorbance at 405 nm)
A plot of percentage of inhibition vs inhibitor concentration is obtained, and IC50 is determined using a linear regression calculations (concentration of inhibitor which will give 50% inhibition).

[2] = biological target: cathepsin B (Rattus norvegicus, UniProt P00787); assay: In vitro assay procedure for cathepsin B (inhibition); format: biochemical
Experimental: The compounds of formula I were tested for inhibition of cathepsin B using the known method (A. J. Barret et al., Biochem. J. 1982, 201, 189-198). […] After 10 min of incubation at room temperature, a 20 μl of 5 mM substrate (N-CBZ-Phe-Arg-AMC, dissolved in DMSO) was added to initiate reaction. Reading is followed up for 10 min at the fluoroscan reader (excitation at 380 nm, emission at 460 nm).

[3] = pH 6.5, 10 min incubation at room temperature, substrate N-CBZ-Pro-Phe-Arg-pNA, read-out: IC50 Papain
[4] = rat cathepsin B, pH 5.1, 10 min incubation at room temperature, substrate N-CBZ-Phe-Arg-AMC, read-out: IC50 Cathepsin B

Sequence of cathepsin B (P00787 80-339): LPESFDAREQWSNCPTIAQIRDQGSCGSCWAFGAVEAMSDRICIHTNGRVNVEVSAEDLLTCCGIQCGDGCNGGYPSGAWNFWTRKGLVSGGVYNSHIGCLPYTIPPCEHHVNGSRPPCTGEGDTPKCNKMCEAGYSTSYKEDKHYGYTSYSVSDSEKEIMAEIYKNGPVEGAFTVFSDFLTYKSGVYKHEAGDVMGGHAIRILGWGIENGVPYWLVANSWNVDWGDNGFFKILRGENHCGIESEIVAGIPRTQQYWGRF

In the case of O=C(OC[C@H]1CN2C(=O)C[C@@H]2O1)[C@@H]1CCCN1C(=O)OCc1ccccc1 (mixture of isomers) [Example 5, (3RS,5SR)-3-{N-(benzyloxycarbonyl)-L-prolyl}-oxymethyl-4-oxa-1-azabicyclo[3,2,0] heptan-7-one], the IC50 [1, 3] is reported as 0.49 µM and the IC50 [2, 4] is reported as 0.44 µM.
Molecule CS(=O)(=O)NCC1CN2C(=O)CC2O1 (centres unmarked) [Example 33] has an IC50 [1, 3] of 0.91 µM and an IC50 [2, 4] of 0.95 µM.
For COc1cc(C(=O)OCC2CN3C(=O)CC3O2)cc(OC)c1O (centres unmarked) [Example 52], the IC50 [1, 3] was 0.62 µM and the IC50 [2, 4] was 3.1 µM.
With O=C(OCc1ccccc1)[C@@H]1CCCN1C(=O)CC1CN2C(=O)CC2O1 (stereo partly drawn) [Example 20, N-{(7-oxo-4-oxa-1-azabicyclo [3,2,0]heptan-3-yl)-methylcarbonyl} L-proline benzyl ester] the IC50 [1, 3] was 0.56 µM and the IC50 [2, 4] was 13.7 µM.
Work on O=C1CC2OC(C[S+]([O-])Cc3ccccc3)CN12 (centres unmarked) [Example 62] yielded an IC50 [1, 3] of 0.76 µM and an IC50 [2, 4] of 8.7 µM.
Work on NC(Cc1ccccc1)C(=O)NCC1CN2C(=O)CC2O1 (centres unmarked) [Example 49] yielded an IC50 [1, 3] of 0.62 µM and an IC50 [2, 4] of 3.08 µM.
O=C(O)C1CCCCC1C(=O)OCC1CN2C(=O)CC2O1 (centres unmarked) [Example 76] showed an IC50 [1, 3] of 10.9 µM and an IC50 [2, 4] of 0.34 µM.
With O=C(O)COc1ccc(C(=O)OCC2CN3C(=O)CC3O2)cc1 (centres unmarked) [Example 63] the IC50 [1, 3] was 2.9 µM and the IC50 [2, 4] was 2 µM.
Nc1ccc(C(=O)OCC2CN3C(=O)CC3O2)cc1 (centres unmarked) [Example 53] was tested, and the IC50 [1, 3] was 2.4 µM and the IC50 [2, 4] was 3.8 µM.
NC(CCC(=O)OCC1CN2C(=O)CC2O1)C(=O)O (centres unmarked) [Example 24] gave an IC50 [1, 3] of 2.92 µM and an IC50 [2, 4] of 12 µM.
CCOC(=O)c1ccc2c(c1)nc1c(=O)n(C[C@H]3CN4C(=O)C[C@@H]4O3)c(=O)nc-1n2C (relative stereo) [Example 15, (3RS, 5SR)-3-(7-ethoxycarbonyl-10-methylisoalloxazin-3-yl) -methyl-4-oxa-1-azabicyclo [3,2,0] heptan-7-one] was tested, and the IC50 [1, 3] was 1.24 µM and the IC50 [2, 4] was 2.89 µM.
Molecule CC(C)(C)[Si](C)(C)OC[C@H]1CN2C(=O)C[C@H]2O1 [Example 1B, (3R, 5R)-3-(tert-butyldimethylsilyl)oxymethyl-4-oxa-1-azabicyclo [3,2,0] heptan-7-one] has an IC50 [1, 3] of 3.1 µM and an IC50 [2] of 7.78 µM.
Cc1c(C(=O)NC[C@@H]2CN3C(=O)C[C@@H]3O2)c(=O)[nH]c2ccccc12 (racemic) [Example 16, (3RS, 5SR)-3-(1,2-dihydro-4-methyl-2-oxo-quinolin-3-yl)-carbonylaminomethyl-4-oxa-1-azabicyclo [3,2,0] heptan-7-one] was tested, and the IC50 [1, 3] was 0.7 µM and the IC50 [2, 4] was 4.2 µM.
In the case of O=C(/C=C/c1ccccc1)OC[C@H]1CN2C(=O)C[C@@H]2O1 (relative stereo) [Example 13, (3RS, 5SR)-3-(trans-3-phenylpropenoyl)oxymethyl-4-oxa-1-azabicyclo [3,2,0] heptan-7-one], the IC50 [1, 3] is reported as 0.45 µM and the IC50 [2, 4] is reported as 4.06 µM.
O=C1CC2OC(CS(=O)(=O)c3ccccc3)CN12 (centres unmarked) [Example 61] was tested, and the IC50 [1, 3] was 1.6 µM and the IC50 [2, 4] was 1.6 µM.
CC(C)(C)[Si](C)(C)OC[C@H]1CN2C(=O)C[C@@H]2O1 [Example 1A, (3R, 5S)-3-(tert-butyldimethylsilyl)oxymethyl-4-oxa-1-azabicyclo [3,2,0] heptan-7-one] gave an IC50 [1, 3] of 0.16 µM and an IC50 [2] of 0.778 µM.
Molecule O=C(CCCCCCn1ccnn1)NCC1CN2C(=O)CC2O1 (centres unmarked) [Example 74] has an IC50 [1, 3] of 3.3 µM and an IC50 [2, 4] of 6.5 µM.
In the case of O=C(O)CC1CN2C(=O)CC2O1 (centres unmarked), the IC50 [1] is reported as 1.69 µM and the IC50 [2, 4] is reported as 3.98 µM.
In the case of O=C(OCC1CN2C(=O)CC2O1)c1ccc(O)cc1 (centres unmarked) [Example 67], the IC50 [1, 3] is reported as 2.4 µM and the IC50 [2, 4] is reported as 3.8 µM.
